Literature values, collected in patent US20110059175A9, “ENHANCING SOLUBILITY AND DISSOLUTION RATE OF POORLY SOLUBLE DRUGS” (K.U.LEUVEN RESEARCH AND DEVELOPMENT, priority 2006, published 2011).
Values after ≈ are worked out from the molar mass of the structure shown. Where two headings read alike, the source gives them in different places. Blank lines part the entries; values can stand above or below the compound they belong to.

Columns and labels:
[1] = not given; remark: listed apart in the source
[2] = determined; Peeters et al., 2002
[3] = not given; remark: listed apart in the source

- solubility in water (water): practically insoluble
SMILES: NC(=O)N1c2ccccc2C=Cc2ccccc21 [Carbamazepine, 5H-dibenz[b,f]azepine-5-carboxamide]

- time at which peak concentrations occur ([1]; administered orally): ≤ 2 h
- increase in plasma concentration on doubling the dose ([1]; doubling the dose): 30-40%
- half-life ([1]; in vivo): 4 to 5 h
SMILES: C#C[C@]1(O)CC[C@H]2[C@@H]3CCC4=Cc5oncc5C[C@]4(C)[C@H]3CC[C@@]21C [Danazol, 17a-Pregna-2,4-dien-20-yno[2,3-d]-isoxazol-17-ol]

- pKa4 [2]: 4.0
- aqueous solubility (S) (neutral pH): ~0.001 µg/mL (≈ 0.00142 µM)
- aqueous solubility (S) (pH 1): 4 µg/mL (≈ 5.67 µM)
- permeability [3]: adequate
SMILES: CCC(C)n1ncn(-c2ccc(N3CCN(c4ccc(OCC5COC(Cn6cncn6)(c6ccc(Cl)cc6Cl)O5)cc4)CC3)cc2)c1=O (centres unmarked) [Itraconazole]
